Laboratory results taken from patent US5612329A (priority 1995, dated 1997).

Assays:
Type in all cases: cell-based
HCC-2998 cells = assay: In vitro cytotoxicity / cell growth inhibition, colon cancer; conditions: Homo sapiens; HCC-2998, colon cancer, 48 hr; read-out: log10 G150 (converted)
Method: (§1) The anti-proliferative activities of the aziridinylpolyamines obtained in Synthesis Examples 1-4 were assessed by determining log10 G150 values against human cancer cell lines using the screening strategy described by Boyd et al, Drug Devel. Res. 34:91-109 (1995).
(§2) More specifically, the compounds were tested at a minimum of five concentrations at 10-fold dilutions using a 48 hr continuous exposure protocol. Each cell line shown in Table 1 below was inoculated onto microtiter plates. After a pre-incubation period of 24-48 hr at 37° C., the test compounds were added, and the culture was incubated for an additional 48 hr at 37° C. Cell viability or cell growth end-point determinations were performed by fixation of the cells, followed by staining with sulforhodamine B (Monks et al, J. Natl. Cancer Inst., 83:757-766 (1991)).

HCT-15 cells = assay: as above; conditions: Homo sapiens; HCT-15, colon cancer, 48 hr; read-out: log10 G150 (converted)
Method: as §1, §2

COLO 205 cells = assay: as above; conditions: Homo sapiens; COLO 205, colon cancer, 48 hr; read-out: log10 G150 (converted)
Method: as §1, §2

KM12 cells = assay: as above; conditions: Homo sapiens, 48 hr, read-out: log10 G150 (converted)
Method: as §1, §2

SW-620 cells = assay: as above; conditions: Homo sapiens; SW-620, colon cancer, 48 hr; read-out: log10 G150 (converted)
Method: as §1, §2

HCT-116 cells = assay: as above; conditions: Homo sapiens; HCT-116, colon cancer, 48 hr; read-out: log10 G150 (converted)
Method: as §1, §2

HT29 cells = assay: as above; conditions: Homo sapiens, HT-29, 48 hr, read-out: log10 G150 (converted)
Method: as §1, §2

MOLT-4 cells = assay: In vitro cytotoxicity / cell growth inhibition, leukemia; conditions: Homo sapiens; MOLT-4, leukemia, 48 hr; read-out: log10 G150 (converted)
Method: as §1, §2

SR cells = assay: as above; conditions: Homo sapiens, 48 hr, read-out: log10 G150 (converted)
Method: as §1, §2

RPMI-8226 cells = assay: as above; conditions: Homo sapiens; RPMI-8226, leukemia, 48 hr; read-out: log10 G150 (converted)
Method: as §1, §2

K-562 cells = assay: as above; conditions: Homo sapiens, K562; K-562, leukemia, 48 hr; read-out: log10 G150 (converted)
Method: as §1, §2

CCRF-CEN cells = assay: as above; conditions: Homo sapiens, 48 hr, read-out: log10 G150 (converted)
Method: as §1, §2

SF-295 cells = assay: In vitro cytotoxicity / cell growth inhibition, CNS cancer; conditions: Homo sapiens; SF-295, CNS cancer, 48 hr; read-out: log10 G150 (converted)
Method: as §1, §2

U251 cells = assay: as above; conditions: Homo sapiens, U-251, 48 hr, read-out: log10 G150 (converted)
Method: as §1, §2

SNB-19 cells = assay: as above; conditions: Homo sapiens; SNB-19, CNS cancer, 48 hr; read-out: log10 G150 (converted)
Method: as §1, §2

SNB-75 cells = assay: as above; conditions: Homo sapiens; SNB-75, CNS cancer, 48 hr; read-out: log10 G150 (converted)
Method: as §1, §2

SF-539 cells = assay: as above; conditions: Homo sapiens; SF-539, CNS cancer, 48 hr; read-out: log10 G150 (converted)
Method: as §1, §2

SF-268 cells = assay: as above; conditions: Homo sapiens; SF-268, CNS cancer, 48 hr; read-out: log10 G150 (converted)
Method: as §1, §2

HL-60 (TB) cells = assay: cells; conditions: Homo sapiens, leukemia, 48 hr, read-out: log10 G150 (converted)

In the case of `C(CCNCCCN1CC1)CNCCCN1CC1` [Synthesis Example 1, 1,12-Diaziridinyl-4,9-diazadodecane], the GI50 (HCC-2998 cells) is reported as 1820 nM, the GI50 (HCT-15 cells) is reported as 11500 nM and the GI50 (COLO 205 cells) is reported as 407 nM. The GI50 (KM12 cells) was 15500 nM, the GI50 (SW-620 cells) was 2630 nM and the GI50 (HCT-116 cells) was 1260 nM. The GI50 (HT29 cells) was 3630 nM, the GI50 (MOLT-4 cells) was 44.7 nM and the GI50 (SR cells) was 18.2 nM. For the same compound, the GI50 (RPMI-8226 cells) was 5130 nM, the GI50 (K-562 cells) was 4370 nM and the GI50 (CCRF-CEN cells) was 63.1 nM. The GI50 (SF-295 cells) was 155 nM, the GI50 (U251 cells) was 417 nM and the GI50 (SNB-19 cells) was 1120 nM. The GI50 (SNB-75 cells) was 27.5 nM, the GI50 (SF-539 cells) was 37.2 nM and the GI50 (SF-268 cells) was 148 nM. The GI50 (HL-60 (TB) cells) was 35.5 nM.
